Consider 21 compounds from patent US20230404887A1, “COMPOSITIONS TO LIMIT OR ELIMINATE THE PERCEPTION OF SWEAT MALODOR” (Firmenich SA, priority 2020, published 2023).

The nature of test [1]: Expert perfumer evaluation of malodor reduction, dynamic olfactometer, against 3M2HA. Conditions: for EFFECTIVE CONCENTRATION: MO 3M2HA held fixed at mid-intensity (0.5), headspace concentration providing an effective level; for EXPERT RATING: MO 3M2HA held fixed at mid-intensity (0.5 on scale 0-1), rating of degree of malodor reduction at the effective concentration. Further details: species or system human. The protocol:
(§1) The effectiveness of perfuming materials in compositions to reduce the perception of, for example, axillary sweat malodors, was evaluated by an expert perfumer by 1) selecting target axillary malodor components, 2) delivering target malodor components and candidate malodor reducing materials to the nose of an expert perfumer at carefully controlled concentrations, 3) having the expert perfumer identify the concentration at which malodor reduction was obtained, and 4) rating the degree of reduction achieved at the concentration identified in step 3.
(§2) In this method, a dynamic multi-channel olfactometer was used to precisely deliver known gas phase concentrations of the test materials, using forced evaporation, into a stream of air emanating from a smelling port. The appropriate concentration of the malodor component was established prior to its being mixed with the candidate malodor reducing substance. The concentration was set at a concentration sufficient to produce an intensity of 0.5 (mid-intensity) on a scale of 0-1. The expert perfumer then dynamically adjusted the concentration of the candidate malodor reducing substance to determine the effective concentration, while maintaining a fixed concentration of the malodor component. Once the appropriate concentration had been determined, the expert perfumer evaluated the perception of the mixtures repeatedly over a period of several minutes, taking breaks in between sniffs to avoid adaptation to the components being tested, before providing a rating.
(§3) Tests were performed in a forced-evaporation, dynamic olfactometer, with malodor component concentrations held fixed at a mid-intensity. Ratings of effectiveness were based in the following scale: −2 (significant increase in malodor), −1 (slight increase in malodor), 0 (no effect), 1 (slight malodor reduction), 2 (good malodor reduction), 3 (complete malodor reduction). The malodor (MO) component abbreviations are 3H3MHA (3-methyl-3-hydroxyhexanoic acid), 3M2HA (3-methyl-2-hexenoic acid), 3M3SH (3-methyl-3-sulphanylhexanol).

A short description of test [2]: Expert perfumer evaluation of malodor reduction, dynamic olfactometer, against 3M3SH. Conditions: for EFFECTIVE CONCENTRATION: MO 3M3SH held fixed at mid-intensity (0.5), headspace concentration providing an effective level; for EXPERT RATING: MO 3M3SH held fixed at mid-intensity (0.5 on scale 0-1), rating of degree of malodor reduction at the effective concentration. Further details: species or system human. The protocol: as §1, §2, §3

Test [3] can be described thus: Expert perfumer evaluation of malodor reduction, dynamic olfactometer, against 3H3MHA. To be noted: for EFFECTIVE CONCENTRATION: MO 3H3MHA held fixed at mid-intensity (0.5), headspace concentration providing an effective level; for EXPERT RATING: MO 3H3MHA held fixed at mid-intensity (0.5 on scale 0-1), rating of degree of malodor reduction at the effective concentration. Further details: species or system human; key to EXPERT RATING: −2: significant increase in malodor; −1: slight increase in malodor; 0: no effect; 1: slight malodor reduction; 2: good malodor reduction; 3: complete malodor reduction. The protocol:
The effectiveness of perfuming materials in compositions to reduce the perception of, for example, axillary sweat malodors, was evaluated by an expert perfumer by 1) selecting target axillary malodor components, 2) delivering target malodor components and candidate malodor reducing materials to the nose of an expert perfumer at carefully controlled concentrations, 3) having the expert perfumer identify the concentration at which malodor reduction was obtained, and 4) rating the degree of reduction achieved at the concentration identified in step 3. […] Two surprising results were be observed. The first is that not all tested materials yielded complete malodor reduction, often differing depending on which component they were tested against. […] Intensity and concentration were material-dependent and spanned a wide range of values on both axes. […] Thus, neither the required concentrations, nor performance ratings could be predicted a priori by one skilled in the art, yet are necessary and sufficient for designing malodor reducing compositions for use in perfuming products.
as §2, §3

As for `CC(=O)c1ccc2ccccc2c1`, the “EFFECTIVE CONCENTRATION” value in test [1] came out at 1.37E−02 micrograms/L AIR; in test [2], 3.42E−02 micrograms/L AIR; in test [3] it was 1.37E−02 micrograms/L AIR. Moreover, the “EXPERT RATING” value is given as 3 in test [1], 2 in test [2] and 3 in test [3].
`CC(C)=CCCC(C)CC=O` (racemic): in test [1], the “EFFECTIVE CONCENTRATION” value was determined as 1.30E−01 micrograms/L AIR and the “EXPERT RATING” value is 2. In test [3], the “EFFECTIVE CONCENTRATION” value is recorded as 1.30E−01 micrograms/L AIR and the “EXPERT RATING” value was 3.
For “(+−)-(3E)-4-(2,6,6-trimethyl-1/2-cyclohexen-1-yl)-3-buten-2-one”, the “EFFECTIVE CONCENTRATION” value is 4.00E−01 micrograms/L AIR in test [1], 8.00E−01 micrograms/L AIR in test [2] and 2.00E−01 micrograms/L AIR in test [3]. In addition, the “EXPERT RATING” value in test [1] is 3; in test [2], 2; in test [3], 3.
In the case of `Cc1ccc2c(c1)CC(C)(CO)C2` (racemic), the “EFFECTIVE CONCENTRATION” value in test [1] worked out at 4.70E−02 micrograms/L AIR; in test [2] it was 7.83E−02 micrograms/L AIR; in test [3] it was 3.13E−02 micrograms/L AIR. Also, the “EXPERT RATING” value in test [1], in test [2] and in test [3] was 3 throughout.
For the compound `C=C1CCCC(C)(C)C1C(=O)OC` (racemic) [(+−)-METHYL 2,2-DIMETHYL-6-METHYLIDENECYCLOHEXANECARBOXYLATE], the “EFFECTIVE CONCENTRATION” value in test [1] amounted to 4.00E−01 micrograms/L AIR; in test [2] it was 4.00E−01 micrograms/L AIR; in test [3] it was 8.00E−01 micrograms/L AIR. The “EXPERT RATING” value was 3 in test [1], 2 in test [2] and 3 in test [3].
`CCOC(=O)[C@@H]1[C@@H](C(C)C)[C@@H]2C=C[C@H]1C2` (racemic) [ETHYL 1RS,2SR,3SR,4SR-3-ISOPROPYLBICYCLO[2.2.1]HEPT-5-ENE-2-CARBOXYLATE]: the “EFFECTIVE CONCENTRATION” value is reported as 2.58E+00 micrograms/L AIR in test [1], 2.07E+01 micrograms/L AIR in test [2] and 1.03E+00 micrograms/L AIR in test [3]. Also, the “EXPERT RATING” value is given as 2 in test [1], 3 in test [2] and 3 in test [3].
Consider `C/C=C/C(=O)C1C(C)=CCCC1(C)C` (racemic), for which, in test [1], the “EFFECTIVE CONCENTRATION” value was 1.30E−02 micrograms/L AIR and the “EXPERT RATING” value was 2. Also, in test [3], the “EFFECTIVE CONCENTRATION” value was 1.08E−02 micrograms/L AIR and the “EXPERT RATING” value is given as 3.
Consider `c1ccc(CCCc2ccccn2)cc1` [2-(3-PHENYLPROPYL)PYRIDINE], for which, in test [1], the “EFFECTIVE CONCENTRATION” value is listed as 1.43E−04 micrograms/L AIR and the “EXPERT RATING” value is 3. Moreover, in test [3], the “EFFECTIVE CONCENTRATION” value is reported as 1.43E−04 micrograms/L AIR and the “EXPERT RATING” value is on record as 3.
As to `CC/C=C\CC/C=C/C=O` [(2E,6Z)-2,6-NONADIENAL], the results for the “EFFECTIVE CONCENTRATION” value in test [1], in test [2] and in test [3] were 2.83E−03 micrograms/L AIR, 5.67E−04 micrograms/L AIR and 1.13E−03 micrograms/L AIR, respectively. The “EXPERT RATING” value in test [1], in test [2] and in test [3] was 3 in each case.
On to `C/C=C/c1ccc(OCC)c(O)c1` [(E)-2-ETHOXY-5-(1-PROPENYL)PHENOL], for which the entries for the “EFFECTIVE CONCENTRATION” value in test [1], in test [2] and in test [3] were 1.80E−02 micrograms/L AIR, 4.50E−02 micrograms/L AIR and 4.50E−03 micrograms/L AIR, respectively. For the same compound, the “EXPERT RATING” value in test [1], in test [2] and in test [3] was 3 in each case.
As for `CC(=O)/C=C/C1=C(C)CCCC1(C)C`, in test [1], the “EFFECTIVE CONCENTRATION” value is 5.83E−02 micrograms/L AIR and the “EXPERT RATING” value is 3. Besides, in test [2], the “EFFECTIVE CONCENTRATION” value amounted to 1.17E−01 micrograms/L AIR and the “EXPERT RATING” value is recorded as 3.
As to “1-(3,3/5,5-dimethyl-1-cyclohexen-1-yl)-4-penten-1-one”, the results for the “EFFECTIVE CONCENTRATION” value in test [1], in test [2] and in test [3] were 2.53E−03 micrograms/L AIR, 1.22E+00 micrograms/L AIR and 1.22E+00 micrograms/L AIR, respectively. Besides, the “EXPERT RATING” value in test [1], in test [2] and in test [3] was 3 in each case.
On to `C=CCCCCCCCCC=O` [10-UNDECENAL], for which the “EFFECTIVE CONCENTRATION” value was determined as 9.50E−03 micrograms/L AIR in test [1] and 9.50E−02 micrograms/L AIR in test [2]. Also, the “EXPERT RATING” value in test [1] was 3; in test [2], 2.
The like results for `COC(=O)/C=C/c1ccccc1` [METHYL (E)-3-PHENYL-2-PROPENOATE] were, in that order, 7.00E−02 micrograms/L AIR, 9.33E−02 micrograms/L AIR, 3 and 2.
As for `CC(=O)CCc1ccc(O)cc1` [4-(4-HYDROXYPHENYL)-2-BUTANONE], the “EFFECTIVE CONCENTRATION” value in test [1] is reported as 1.50E−04 micrograms/L AIR; in test [2], 6.00E−04 micrograms/L AIR. Moreover, the “EXPERT RATING” value was 3 in test [1] and 1 in test [2].
For the compound `C[C@@H]1C/C=C\CCCCCCCCCC(=O)C1` [(+)-(3R,5Z)-3-METHYL-5-CYCLOPENTADECEN-1-ONE], the “EFFECTIVE CONCENTRATION” value in test [1] is given as 1.65E−01 micrograms/L AIR; in test [2] it was 2.75E−01 micrograms/L AIR; in test [3], 5.50E−01 micrograms/L AIR. Further, the “EXPERT RATING” value in test [1], in test [2] and in test [3] was 2 in each case.
Regarding `Cc1ccc(C(C)C)c(O)c1` [THYMOL], in test [1], the “EFFECTIVE CONCENTRATION” value is 5.17E−02 micrograms/L AIR and the “EXPERT RATING” value is listed as 3. Further, in test [2], the “EFFECTIVE CONCENTRATION” value stood at 1.03E−01 micrograms/L AIR and the “EXPERT RATING” value was determined as 3.
Regarding `CCCCCC#CC(=O)OC` [METHYL 2-OCTYNOATE], in test [1], the “EFFECTIVE CONCENTRATION” value is reported as 4.67E−01 micrograms/L AIR and the “EXPERT RATING” value was 3. Also, in test [2], the “EFFECTIVE CONCENTRATION” value was 4.67E−01 micrograms/L AIR and the “EXPERT RATING” value is on record as 3.
As to `O=C1CCCCCCC/C=C/CCCCCCO1` [(10E)-OXACYCLOHEPTADEC-10-EN-2-ONE], the “EFFECTIVE CONCENTRATION” value in test [1] worked out at 7.17E−02 micrograms/L AIR; in test [2], 2.87E−01 micrograms/L AIR. Further, the “EXPERT RATING” value in test [1] and in test [2] was 2 throughout.
In the case of `CCCCC[C@H]1C(=O)CC[C@@H]1CC(=O)OC` (racemic) [METHYL 2-((1RS,2RS)-3-OXO-2-PENTYLCYCLOPENTYL)ACETATE], the “EFFECTIVE CONCENTRATION” value in test [1] came out at 7.17E−01 micrograms/L AIR; in test [2], 7.17E−01 micrograms/L AIR; in test [3] it was 5.73E−01 micrograms/L AIR. Besides, the results for the “EXPERT RATING” value in test [1], in test [2] and in test [3] were 2, 2 and 3, respectively.
As to `O=CCCc1ccccc1` [3-PHENYLPROPANAL], in test [1], the “EFFECTIVE CONCENTRATION” value came out at 2.60E+00 micrograms/L AIR and the “EXPERT RATING” value came out at 3. Besides, in test [2], the “EFFECTIVE CONCENTRATION” value is recorded as 2.60E+00 micrograms/L AIR and the “EXPERT RATING” value is listed as 3.
